# Key:
# [1] = tested on: Glomerella lagenarium (Colletotrichum lagenarium); assay: Fungicidal activity against Glomerella lagenarium (Colletotrichum lagenarium) liquid culture / cucumber / preventative (anthracnose); format: cell-based; settings: Colletotrichum orbiculare; 20 ppm in the applied formulation; liquid culture (PDB), growth inhibition measured photometrically after 3 to 4 days; compared to untreated control; read-out: disease control
# Method in brief: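 Photometric read-out of fungal growth after 2–7 days, expressed as percent antifungal activity versus untreated check. Cryo-stored conidia in PDB; compound at 20 ppm; dark, 24 °C, 96% RH.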
# Phakopsora Pachyrhizi = assay: Fungicidal activity against Phakopsora pachyrhizi / soybean / leaf disc preventative (Asian soybean rust); format: in vivo; settings: foliar, 200 ppm in the applied formulation, soybean leaf disks, compared to untreated control leaf disks, read-out: disease control
# Experimental: Leaf disks or leaf segments of various plant species are cut from plants grown in a greenhouse. The cut leaf disks or segments are placed in multiwell plates (24-well format) onto water agar. The leaf disks are sprayed with a test solution before (preventative) or after (curative) inoculation. Compounds to be tested are prepared as DMSO solutions (max. 10 mg/ml) which are diluted to the appropriate concentration with 0.025% Tween20 just before spraying. The inoculated leaf disks or segments are incubated under defined conditions (temperature, relative humidity, light, etc.) according to the respective test system. A single evaluation of disease level is carried out 3 to 14 days after inoculation, depending on the pathosystem. Percent disease control relative to the untreated check leaf disks or segments is then calculated.
# Fungicidal Activity Against Phakopsora Pachyrhizi Soybean/Leaf Disc Preventative (Asian Soybean Rust)
# Soybean leaf disks are placed on water agar in multiwell plates (24-well format) and sprayed with the formulated test compound diluted in water. One day after application leaf discs are inoculated by spraying a spore suspension on the lower leaf surface. After an incubation period in a climate cabinet of 24-36 hours in darkness at 20° C. and 75% rh leaf disc are kept at 20° C. with 12 h light/day and 75% rh. The activity of a compound is assessed as percent disease control compared to untreated when an appropriate level of disease damage appears in untreated check leaf disks (12 to 14 days after application).
# The following compounds at 200 ppm in the applied formulation give at least 80% disease control in this test when compared to untreated control leaf disks under the same conditions, which show extensive disease development.
# [2] = tested on: Puccinia recondita f. Sp. Tritici; assay: Fungicidal activity against Puccinia recondita f. sp. tritici / wheat / leaf disc curative (brown rust); format: in vivo; settings: foliar, 24 h, 200 ppm in the applied formulation, wheat leaf segments, curative (applied 1 day after inoculation), compared to untreated control leaf disks, read-out: disease control
# Method in brief: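 Scoring is percent disease control relative to untreated segments, made 6 to 8 days after treatment. Wheat (cv. Kanzler) leaf segments received the formulated, water-diluted compound one day post-inoculation with spores, having been kept dark at 19° C and 75% RH, then incubated under 12 h light/12 h dark at the same temperature and humidity.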
# [3] = tested on: Puccinia recondita f. Sp. Tritici; assay: Fungicidal activity against Puccinia recondita f. sp. tritici / wheat / leaf disc preventative (brown rust); format: in vivo; settings: foliar, 200 ppm in the applied formulation, wheat leaf segments, preventative, compared to untreated control leaf disks, read-out: disease control
# Method in brief: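 Preventative leaf-segment test, wheat cv. Kanzler on water agar. Spray compound at 200 ppm, inoculate with spores 1 day later; 19° C., 75% rh, 12/12 h light. Read-out: % disease control vs untreated, 7 to 9 days after application.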
SMILES,inhibition of growth at 20 ppm [1],pest or weed control at 200 ppm (Phakopsora Pachyrhizi),pest or weed control at 200 ppm [2],pest or weed control at 200 ppm [3]
"CCC(C)(CC)C(=O)N(Cc1ccc(-c2noc(C(F)(F)F)n2)cc1)OC [Compound 1.58, 2-ethyl-N-methoxy-2-methyl-N-[[4-[5-(trifluoromethyl)-1,2,4-oxadiazol-3-yl]phenyl]methyl]-butanamide]",≥ 80%,≥ 80%,–,–
"CCC(CC(=O)N(Cc1ccc(-c2noc(C(F)(F)F)n2)cc1)OC)C(F)(F)F (stereo not shown) [Compound 1.82, N-methoxy-3-(trifluoromethyl)-N-[[4-[5-(trifluoromethyl)-1,2,4-oxadiazol-3-yl]phenyl]methyl]-pentamide]",≥ 80%,≥ 80%,–,–
"O=C(CC1CCCC1)N(Cc1ccc(-c2noc(C(F)(F)F)n2)cc1)C1CC1 [Compound 1.84, 2-cyclopentyl-N-cyclopropyl-N-[[4-[5-(trifluoromethyl)-1,2,4-oxadiazol-3-yl]phenyl]methyl]-acetamide]",≥ 80%,≥ 80%,–,–
"C#CCN(Cc1ccc(-c2noc(C(F)(F)F)n2)cc1)C(=O)C1CC1c1ccccc1 (stereo not shown) [Compound 1.166, 2-phenyl-N-prop-2-ynyl-N-[[4-[5-(trifluoromethyl)-1,2,4-oxadiazol-3-yl]phenyl]methyl]-cyclopropane-carboxamide]",≥ 80%,≥ 80%,–,–
"C#CCN(Cc1ccc(-c2noc(C(F)(F)F)n2)cc1)C(=O)C(C)(CC)CC [Compound 1.195, 2-ethyl-2-methyl-N-prop-2-ynyl-N-[[4-[5-(trifluoromethyl)-1,2,4-oxadiazol-3-yl]phenyl]methyl]-butanamide]",≥ 80%,≥ 80%,–,–
"C#CCN(Cc1ccc(-c2noc(C(F)(F)F)n2)cc1)C(=O)CC1CC1(F)F (stereo not shown) [Compound 1.197, 2-(2,2-difluorocyclopropyl)-N-prop-2-ynyl-N-[[4-[5-(trifluoromethyl)-1,2,4-oxadiazol-3-yl]phenyl]methyl]-acetamide]",–,≥ 80%,–,–
"O=C(CC(F)(F)F)N(Cc1ccc(-c2noc(C(F)(F)F)n2)cc1)CC1CC1 [Compound 1.220, N-(cyclopropylmethyl)-3,3,3-trifluoro-N-[[4-[5-(trifluoromethyl)-1,2,4-oxadiazol-3-yl]phenyl]methyl]-propanamide]",≥ 80%,≥ 80%,–,–
"C#CCOC(=O)NC(C(=O)N(Cc1ccc(-c2noc(C(F)(F)F)n2)cc1)CC1CC1)C(C)C (stereo not shown) [Compound 1.241, prop-2-ynyl N-[1-(cyclopropylmethyl-[[4-[5-(trifluoromethyl)-1,2,4-oxadiazol-3-yl]phenyl]methyl]-carbamoyl]-2-methyl-propyl]carbamate]",–,≥ 80%,–,–
"O=C(OCCN(Cc1ccc(-c2noc(C(F)(F)F)n2)cc1)C(=O)c1ccccc1Cl)c1ccccc1Cl [Compound 1.710, 2-[(2-chlorobenzoyl)-[[4-[5-(trifluoromethyl)-1,2,4-oxadiazol-3-yl]phenyl]methyl]-amino]ethyl 2-chlorobonzoato]",–,≥ 80%,–,–
"COCCCC(=O)N(Cc1ccc(-c2noc(C(F)(F)F)n2)cc1)C1COC1 [Compound 1.746, 4-methoxy-N-(oxetan-3-yl)-N-[[4-[5-(trifluoromethyl)-1,2,4-oxadiazol-3-yl]phenyl]methyl]-butanamide]",–,≥ 80%,–,–
"CCN(Cc1ccc(-c2noc(C(F)(F)F)n2)cc1)C(=O)N(C)CC#N [Compound 3.88, 1-(cyanomethyl)-3-ethyl-1-methyl-3-[[4-[5-(trifluoromethyl)-1,2,4-oxadiazol-3-yl]phenyl]methyl]urea]",≥ 80%,–,≥ 80%,≥ 80%
"CCN(Cc1ccc(-c2noc(C(F)(F)F)n2)cc1)C(=O)N(CC)C1CC1 [Compound 3.89, 1-cyclopropyl-1,3-diethyl-3-[[4-[5-(trifluoromethyl)-1,2,4-oxadiazol-3-yl]phenyl]methyl]urea]",≥ 80%,–,≥ 80%,≥ 80%
"CCN(Cc1ccc(-c2noc(C(F)(F)F)n2)cc1)C(=O)N(C)C1CC1 [Compound 3.90, 1-cyclopropyl-3-ethyl-1-methyl-3-[[4-[5-(trifluoromethyl)-1,2,4-oxadiazol-3-yl]phenyl]methyl]urea]",≥ 80%,–,≥ 80%,≥ 80%
"CCN(Cc1ccc(-c2noc(C(F)(F)F)n2)cc1)C(=O)N(C)C1COC1 [Compound 3.91, 1-ethyl-3-methyl-3-(oxetan-3-yl)-1-[[4-[5-(trifluoromethyl)-1,2,4-oxadiazol-3-yl]phenyl]methyl]urea]",≥ 80%,–,≥ 80%,≥ 80%
"CCOC(=O)CN(C)C(=O)N(CC)Cc1ccc(-c2noc(C(F)(F)F)n2)cc1 [Compound 3.92, ethyl 2-[[ethyl-[[4-[5-(trifluoromethyl)-1,2,4-oxadiazol-3-yl]phenyl]methyl]-carbamoyl]-methyl-amino]acetate]",≥ 80%,–,≥ 80%,≥ 80%
"CCN(Cc1ccc(-c2noc(C(F)(F)F)n2)cc1)C(=O)N1CCCC1 [Compound 3.93, N-ethyl-N-[[4-[5-(trifluoromethyl)-1,2,4-oxadiazol-3-yl]phenyl]methyl]-pyrrolidine-1-carboxamide]",≥ 80%,–,≥ 80%,≥ 80%
"CCCN(C)C(=O)N(CC)Cc1ccc(-c2noc(C(F)(F)F)n2)cc1 [Compound 3.94, 1-ethyl-3-methyl-3-propyl-1-[[4-[5-(trifluoromethyl)-1,2,4-oxadiazol-3-yl]phenyl]methyl]urea]",≥ 80%,–,≥ 80%,≥ 80%
"CCN(Cc1ccc(-c2noc(C(F)(F)F)n2)cc1)C(=O)N(C)C1(COC)CC1 [Compound 3.95, 1-ethyl-3-[1-(methoxymethyl)-cyclopropyl]-3-methyl-1-[[4-[5-(trifluoromethyl)-1,2,4-oxadiazol-3-yl]phenyl]methyl]urea]",≥ 80%,–,≥ 80%,≥ 80%
"C=CCN(C)C(=O)N(CC)Cc1ccc(-c2noc(C(F)(F)F)n2)cc1 [Compound 3.97, 1-allyl-3-ethyl-1-methyl-3-[[4-[5-(trifluoromethyl)-1,2,4-oxadiazol-3-yl]phenyl]methyl]urea]",≥ 80%,–,≥ 80%,≥ 80%
"CCN(Cc1ccc(-c2noc(C(F)(F)F)n2)cc1)C(=O)N(C)C(C)C [Compound 3.98, 1-ethyl-3-isopropyl-3-methyl-1-[[4-[5-(trifluoromethyl)-1,2,4-oxadiazol-3-yl]phenyl]methyl]urea]",≥ 80%,–,≥ 80%,≥ 80%
"C#CCN(C(=O)N(CC)Cc1ccc(-c2noc(C(F)(F)F)n2)cc1)C1CC1 [Compound 3.99, 1-cyclopropyl-3-ethyl-1-prop-2-ynyl-3-[[4-[5-(trifluoromethyl)-1,2,4-oxadiazol-3-yl]phenyl]methyl]urea]",≥ 80%,–,≥ 80%,≥ 80%
"CCN(Cc1ccc(-c2noc(C(F)(F)F)n2)cc1)C(=O)N(C)C1CCC1 [Compound 3.101, 1-cyclobutyl-3-ethyl-1-methyl-3-[[4-[5-(trifluoromethyl)-1,2,4-oxadiazol-3-yl]phenyl]methyl]urea]",≥ 80%,–,≥ 80%,≥ 80%
"CCN(Cc1ccc(-c2noc(C(F)(F)F)n2)cc1)C(=O)N(CCOC)CCOC [Compound 3.102, 1-ethyl-3,3-bis(2-methoxyethyl)-1-[[4-[5-(trifluoromethyl)-1,2,4-oxadiazol-3-yl]phenyl]methyl]urea]",≥ 80%,–,≥ 80%,≥ 80%

# — patent US11180462B2, “Microbiocidal oxadiazole derivatives” (SYNGENTA PARTICIPATIONS AG, priority 2015, dated 2021)
